Measurements reported in article PMC12067093, “Discovery and optimisation of a covalent ligand for TRIM25 and its application to targeted protein ubiquitination” (Chemical Science, 2025).

Target: T1, E1 (His6-UBA1) (Mus musculus, UniProt Q02053)
T1 construct: made in house
T1 sequence (Q02053 1-1058): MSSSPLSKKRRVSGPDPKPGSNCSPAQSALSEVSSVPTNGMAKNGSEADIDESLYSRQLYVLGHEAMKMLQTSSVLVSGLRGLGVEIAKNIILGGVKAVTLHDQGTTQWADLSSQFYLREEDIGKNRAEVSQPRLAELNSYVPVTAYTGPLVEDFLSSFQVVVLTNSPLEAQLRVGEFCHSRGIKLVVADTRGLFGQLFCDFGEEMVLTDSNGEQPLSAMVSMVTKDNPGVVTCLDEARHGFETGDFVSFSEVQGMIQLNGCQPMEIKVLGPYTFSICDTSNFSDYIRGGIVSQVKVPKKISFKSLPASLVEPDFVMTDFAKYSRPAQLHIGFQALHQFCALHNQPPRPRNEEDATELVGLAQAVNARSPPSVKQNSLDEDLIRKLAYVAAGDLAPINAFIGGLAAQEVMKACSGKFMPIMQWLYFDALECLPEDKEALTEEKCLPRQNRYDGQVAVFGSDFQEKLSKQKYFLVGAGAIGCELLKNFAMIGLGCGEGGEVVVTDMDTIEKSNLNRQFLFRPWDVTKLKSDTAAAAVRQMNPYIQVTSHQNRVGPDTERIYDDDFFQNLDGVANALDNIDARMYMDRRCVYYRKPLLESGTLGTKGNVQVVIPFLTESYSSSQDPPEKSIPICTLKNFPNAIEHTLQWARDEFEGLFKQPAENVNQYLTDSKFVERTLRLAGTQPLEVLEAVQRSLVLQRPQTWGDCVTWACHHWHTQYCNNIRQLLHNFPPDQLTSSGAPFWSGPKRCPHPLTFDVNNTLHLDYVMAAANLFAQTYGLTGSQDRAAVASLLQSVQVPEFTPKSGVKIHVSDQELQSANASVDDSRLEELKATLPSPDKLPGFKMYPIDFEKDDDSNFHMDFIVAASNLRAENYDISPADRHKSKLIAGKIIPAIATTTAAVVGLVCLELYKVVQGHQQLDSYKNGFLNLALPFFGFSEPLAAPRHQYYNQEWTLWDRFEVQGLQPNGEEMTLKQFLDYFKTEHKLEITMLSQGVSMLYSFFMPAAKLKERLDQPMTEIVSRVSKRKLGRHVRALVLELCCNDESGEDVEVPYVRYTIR
Experiment: E1~Ub loading assay
Format: biochemical
Conditions: E1 2 μM pre-treated with compound 100 μM for 30 min at RT; reducing and non-reducing conditions
Method: 2 Supplementary Figure 6 Further biochemical characterisation of purified
4 A) Schematic of auto-ubiquitination assay, with pre-labelled full-length TRIM25. Created in
5 BioRender. McPhie, K. (2025) https://BioRender.com/q86g447; B) Auto-ubiquitination time
7 µM) was incubated with compounds (50 µM) or DMSO (1%) for 16 h at 4 °C, before addition
8 of E1 (0.2 µM), UBCH5B (2 µM), Ub (50 µM), UbATTO (1 µM). The assay was initiated by the
9 addition of ATP, and performed for 60 min at 30 °C. Time point 0 was taken before the addition
10 of ATP. Samples were analysed by SDS-PAGE, with Coomassie staining and scanning at 700
11 nm wavelength (for ATTO emission).
12 of His10-TRIM25 (which has not been ubiquitinated) where % His10-TRIM25 (relative to time =
13 0 min) is plotted vs reaction time. Data are presented as n = 1; D) E1~Ub loading assay with
E1 (2 µM) was incubated with
15 compounds (100 µM) or DMSO (1%) for 30 min at RT, before addition of UBCH5B (2 µM) and
16 Ub (10 µM). The assay was initiated by the addition of ATP (1 mM), and performed for 5 min
17 at 30 °C. After 5 min, samples were treated with either loading dye, or loading dye with DTT,
18 and analysed by SDS-PAGE, with Coomassie staining; E) Cellular target identification for 11
19 (50 µM, left, and 10 µM, right, 4 h incubation at 37 °C in live THP-1 cells) using an […]

E1~Ub loading | SMILES
not inhibited | CC1Cc2ccccc2N1C(=O)C1CCCN(C(=O)CCl)C1 (centres unmarked) [Compound 11]
not inhibited | Cc1cc(C(=O)N2CCCN(C(=O)CCl)CC2)ccc1-c1ccccc1 [Compound 10]
